Assay results as given in patent US6887992B2, “3-cephem derivative crystal” (Otsuka Kagaku Kabushiki Kaisha, priority 1999, dated 2005).

Assay: Stability Test: storage, factor of decomposition determined by HPLC
Assay type: physicochemical
Description: Used were 100 g of clathrate crystals comprising 3-formylcephem compound (1) and dimethylformamide prepared in Example 1 and 100 g of 3-formylcephem compound (1) prepared in Reference Example 1 (amorphous product). They were stored in a thermostatic chamber at 20 to 25° C. and in a refrigerator at 3 to 5° C. for a specified time to determine a factor of decomposition by high performance liquid chromatorgraphy (HPLC). It is clear from the table that the cephalosporin crystals of the invention scarcely causes decomposition and are excellent in stability.

[1] = stored in refrigerator at 3 to 5° C. for 48 days
[2] = stored in thermostatic chamber at 20 to 25° C. for 14 days

Decomposition rate (%) [1] [%]	Decomposition rate (%) [2] [%]	SMILES
13	59	COc1ccc(COC(=O)C2=C(C=O)CSC3C(NC(=O)Cc4ccccc4)C(=O)N23)cc1 (stereo not shown) [amorphous product, p-methoxybenzyl ester of 7-phenylacetamide-3-formyl-3-cephem-4-carboxylic acid]
0	2	COc1ccc(COC(=O)C2=C(C=O)CSC3C(NC(=O)Cc4ccccc4)C(=O)N23)cc1 (stereo not shown) [crystal, p-methoxybenzyl ester of 7-phenylacetamide-3-formyl-3-cephem-4-carboxylic acid]
